From BindingDB's records for doi:10.1016/j.bmcl.2003.10.023 (Boehringer Ingelheim (Canada), 2003)

test: Inhibitory activity against calf thymus RNA polymerase

Structure (SMILES)	IC50
O=C(O)c1ccc2c(c1)nc(-c1nccs1)n2C1CCCCC1 [1-Cyclohexyl-2-thiazol-2-yl-1H-benzoimidazole-5-carboxylic acid]	> 500 µM
O=C(O)c1ccc2c(c1)nc(-c1cccs1)n2C1CCCCC1 [1-Cyclohexyl-2-thiophen-2-yl-1H-benzoimidazole-5-carboxylic acid]	> 500 µM
O=C(O)c1ccc2c(c1)nc(-c1ccsc1)n2C1CCCCC1 [1-Cyclohexyl-2-thiophen-3-yl-1H-benzoimidazole-5-carboxylic acid]	> 500 µM
O=C(O)c1ccc2c(c1)nc(-c1ccccc1)n2C1CCCCC1 [1-cyclohexyl-2-phenyl-1H-benzo[d]imidazole-5-carboxylic acid]	> 500 µM

Other lines, results leading:

IC50	Structure (SMILES)
> 500 µM	O=C(O)c1ccc2c(c1)nc(-c1ncc[nH]1)n2C1CCCCC1 [1-Cyclohexyl-2-(1H-imidazol-2-yl)-1H-benzoimidazole-5-carboxylic acid]
> 500 µM	O=C(O)c1ccc2c(c1)nc(-c1ccc[nH]1)n2C1CCCCC1 [1-Cyclohexyl-2-(1H-pyrrol-2-yl)-1H-benzoimidazole-5-carboxylic acid]
> 500 µM	O=C(O)c1ccc2c(c1)nc(-c1ccco1)n2C1CCCCC1 [1-Cyclohexyl-2-furan-2-yl-1H-benzoimidazole-5-carboxylic acid]
